{"source": "patent US7727736B2", "about": "“Soluble phospholipids for use in clotting factor assays” (The University of North Carolina at Chapel Hill, priority 2003, dated 2010)", "assay_type_in_all_cases": "biochemical", "key": {"[1]": {"molecular_target": "T1, prothrombinase complex (FXa-FVa) (Homo sapiens, UniProt P00742+P12259)", "T1 construct": "Human prothrombin and factor Xa; tissue Hematologic Technologies Inc. (factor Xa only); factor Xa purchased", "T1 sequence (P00742 41-179 limits assumed)": "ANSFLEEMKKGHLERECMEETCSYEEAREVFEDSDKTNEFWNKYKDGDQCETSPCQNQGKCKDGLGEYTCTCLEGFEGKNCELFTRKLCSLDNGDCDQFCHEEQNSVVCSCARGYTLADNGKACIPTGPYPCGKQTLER", "T1 sequence (P00742 235-488 limits assumed)": "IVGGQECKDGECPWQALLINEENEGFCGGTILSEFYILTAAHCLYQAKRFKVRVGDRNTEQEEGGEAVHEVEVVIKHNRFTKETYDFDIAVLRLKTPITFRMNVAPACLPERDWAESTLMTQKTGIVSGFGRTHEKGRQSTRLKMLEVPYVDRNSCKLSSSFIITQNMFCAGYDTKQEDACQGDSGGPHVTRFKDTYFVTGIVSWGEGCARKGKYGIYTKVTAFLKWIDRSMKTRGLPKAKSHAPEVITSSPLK", "T1 sequence (P12259 29-737 limits assumed)": "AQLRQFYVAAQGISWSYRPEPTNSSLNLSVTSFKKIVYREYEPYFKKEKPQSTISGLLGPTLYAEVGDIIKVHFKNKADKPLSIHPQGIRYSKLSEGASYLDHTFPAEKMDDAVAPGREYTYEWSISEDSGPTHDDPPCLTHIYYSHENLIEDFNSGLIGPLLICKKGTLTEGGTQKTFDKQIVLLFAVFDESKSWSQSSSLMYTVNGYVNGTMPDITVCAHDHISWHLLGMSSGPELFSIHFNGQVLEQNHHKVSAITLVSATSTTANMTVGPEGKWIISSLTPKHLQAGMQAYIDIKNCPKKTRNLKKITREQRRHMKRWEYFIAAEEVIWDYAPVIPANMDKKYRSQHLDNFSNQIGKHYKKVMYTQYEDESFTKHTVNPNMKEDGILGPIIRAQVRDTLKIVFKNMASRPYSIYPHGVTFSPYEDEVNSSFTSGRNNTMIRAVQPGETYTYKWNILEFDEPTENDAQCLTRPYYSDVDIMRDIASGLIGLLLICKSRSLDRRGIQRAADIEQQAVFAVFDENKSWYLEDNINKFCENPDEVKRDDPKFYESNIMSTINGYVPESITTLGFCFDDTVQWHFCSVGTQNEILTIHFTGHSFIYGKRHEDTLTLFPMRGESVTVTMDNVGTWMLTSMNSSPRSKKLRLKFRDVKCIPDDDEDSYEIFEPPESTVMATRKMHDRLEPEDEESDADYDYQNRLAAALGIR", "T1 sequence (P12259 1574-2224 limits assumed)": "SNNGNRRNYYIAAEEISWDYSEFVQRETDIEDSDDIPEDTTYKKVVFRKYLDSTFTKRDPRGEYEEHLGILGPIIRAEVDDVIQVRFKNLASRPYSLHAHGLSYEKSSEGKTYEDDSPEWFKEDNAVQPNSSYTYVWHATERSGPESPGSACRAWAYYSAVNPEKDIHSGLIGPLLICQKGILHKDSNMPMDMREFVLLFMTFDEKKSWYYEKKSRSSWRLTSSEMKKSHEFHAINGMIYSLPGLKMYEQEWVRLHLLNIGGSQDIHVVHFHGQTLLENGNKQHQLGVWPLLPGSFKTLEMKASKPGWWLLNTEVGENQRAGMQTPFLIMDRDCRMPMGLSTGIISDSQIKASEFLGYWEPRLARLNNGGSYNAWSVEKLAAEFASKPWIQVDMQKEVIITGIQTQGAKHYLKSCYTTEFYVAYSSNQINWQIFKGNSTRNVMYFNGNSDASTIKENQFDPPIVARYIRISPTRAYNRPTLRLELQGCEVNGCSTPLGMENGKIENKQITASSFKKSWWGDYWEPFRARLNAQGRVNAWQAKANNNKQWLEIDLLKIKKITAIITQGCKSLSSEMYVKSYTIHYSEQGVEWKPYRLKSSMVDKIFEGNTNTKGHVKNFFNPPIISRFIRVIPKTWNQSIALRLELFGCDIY", "assay": "Kinetics of prothrombin and MzIIa activation by C6PS- or membrane-assembled prothrombinase", "procedure": "Fluorescence Stopped-Flow Measurements. The rates of thrombin formation from either MzIIa or Pre2 (with equimolar fragment 1.2), or of thrombin plus MzIIa formation from human prothrombin, were estimated from the time-dependent fluorescence change of DAPA bound to the activation products. […] Stopped-flow measurements were performed using an SLM-Aminco Milliflow® stopped flow reactor (Spectronic Instruments, Inc., Rochester, N.Y.) attached to the SLM 48000® spectrofluorometer (Spectronic Instruments) as described (Wu, et al. (2002) supra; Weinreb, et al. (2003) supra). […] The calculation of rates from measurements of initial fluorescence intensity (F0) and intensity at the completion of the reaction (F∞) is well-established (Nesheim and Mann (1983) supra; Wu, et al. (2002) supra).\nRapid Chemical Quench Measurements. […] Prothrombin solution in 50 mM Tris, 150 mM NaCl, 5 mM Ca^2+, 0.6% PEG (to limit thrombin adsorption to micro-plates), pH 7.5, was loaded into one sample loop, and pre-assembled prothrombinase complex (factor concentrations same as in stopped flow fluorescence studies) in the same buffer was loaded into another sample loop. […]"}, "factor IXa": {"molecular_target": "T2, factor IXa (Homo sapiens, UniProt P00740)", "T2 construct": "intrinsic tryptophan fluorescence of factor IXa", "T2 sequence (P00740 47-191 limits assumed)": "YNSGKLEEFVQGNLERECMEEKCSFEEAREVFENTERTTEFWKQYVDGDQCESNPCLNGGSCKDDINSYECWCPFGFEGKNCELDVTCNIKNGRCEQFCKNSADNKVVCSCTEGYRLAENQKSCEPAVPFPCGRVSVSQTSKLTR", "T2 sequence (P00740 227-461 limits assumed)": "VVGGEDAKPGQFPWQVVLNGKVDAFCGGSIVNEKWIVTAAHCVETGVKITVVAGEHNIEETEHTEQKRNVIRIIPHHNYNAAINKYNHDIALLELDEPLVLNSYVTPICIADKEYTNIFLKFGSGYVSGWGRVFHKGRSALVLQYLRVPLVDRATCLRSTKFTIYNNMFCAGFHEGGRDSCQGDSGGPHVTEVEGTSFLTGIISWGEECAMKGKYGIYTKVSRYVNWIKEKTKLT", "assay": "Activation of factor X by factor IXa (proteolytic activity)", "procedure": "The assay was conducted in the presence of increasing concentrations of C6PS.\nC6PS promotes the proteolytic activation of factor X by factor IXa, just as it promotes the proteolytic activation of prothrombin by factor Xa. […] The rate of activation of factor X by factor IXa in the presence of 700 μM C6PS was monitored at different concentrations of factor X (FIG. 11). The KM for this reaction was 300 nM, which is the same as that obtained with 20% PS/PC membranes (Larson et al. (1996) J. Biol. Chem. 271 3869)."}, "plasma": {"tested_on": "plasma", "assay": "Activated partial thromboplastin time (aPTT) assay", "procedure": "Activated partial thromboplastin time assays were done using an optical detection method to determine clotting time. Two reaction mixtures were created. Mixture A had kaolin in concentrations ranging from 50 g/L to 500 g/L and either phospholipid vesicles (ranging from 0.67 to 240 μM) or C6PS (ranging from 5 μM to 5250 μM) in buffer of 20 mM HEPES (pH 7.4), 150 mM NaCl. Mixture B was 25 mM calcium chloride in a buffer of 20 mM HEPES (pH 7.4), 150 mM NaCl. Plasma, Mixture A, and Mixture B were all incubated at 37° C. for 3 minutes. Mixture A was added to plasma and incubated for 3 minutes at 37° C. Buffer B was added and the optical density was measured. Clotting was detected as an increase in absorbance.\nAs expected, lipid vesicles shortened the Kaolin induced clotting time in a dose-dependent fashion by as much as 100 seconds. C6PS gave a dose dependent shortening in the clotting time, but the largest decrease was 13 seconds. We speculated that the Kaolin might interfere with C6PS. Since the purpose of Kaolin is to activate the contact factors of coagulation (high molecular weight kininogen, factor XII, and factor XI), we substituted 30 nM activated factor XI for Kaolin in the assay described above."}}}
{"compound": "CCCCCC(=O)OC[C@H](COP(=O)(O)OC[C@H](N)C(=O)O)OC(=O)CCCCC", "note": "[C6PS, 1,2-dicaproyl-sn-glycero-3-phospho-L-serine]", "values": [{"measurement": "fraction of prothrombin converted directly (channeled) to thrombin", "setting": "[1]; 400 μM C6PS, FXa 1 nM, FVa2 5 nM", "result": 58, "unit": "%"}, {"measurement": "activation by C6PS-assembled complex relative to literature membrane complex", "setting": "[1]; C6PS with FVa2 vs membrane with FVa", "result": "an order of magnitude faster"}, {"measurement": "Kd", "setting": "factor IXa; 10 nM IXa, 5 mM calcium, read-out: Kd from proteolytic activity of IXa (hyperbolic fit)", "result": 164, "unit": "µM"}, {"measurement": "rate of activation of factor X by factor IXa compared with 20% PS/PC membranes", "setting": "factor IXa; 700 μM C6PS", "result": "identical"}, {"measurement": "maximal shortening of clotting time", "setting": "plasma; 30 nM activated factor XI substituted for Kaolin", "result": 20, "unit": "s"}, {"measurement": "largest shortening of the Kaolin induced clotting time", "setting": "plasma; Kaolin as activator", "result": 13, "unit": "s"}]}
